Measurements from publication PMC7662321, “Andrographolide and Its 14-Aryloxy Analogues Inhibit Zika and Dengue Virus Infection” (Molecules, 2020).

Columns and labels:
ZIKV = test: Percentage of ZIKV infection of A549 cells by flow cytometry; format: cell-based, Zika virus; settings: A549, MOI 5, 10 and 25 µM, 24 h, vs vehicle
Description: To confirm the effects of andrographolide and the andrographolide analogues on ZIKV infection, A549 cells were infected with ZIKV at MOI of 5 for 2 h, and subsequently treated with the compounds at concentrations of 10 and 25 μM or with vehicle for 24 h. The cells were harvested for determination of the percentage of infection by flow cytometry, while the supernatants were collected for determination of viral titer by standard plaque assay.
HEK293T/17 or A549 cells were cultured in six-well plates under standard conditions until the cells reached 80% confluence. HEK293T/17 cells were infected with DENV 2, while A549 cells were infected with ZIKV Thai strain at MOI 5 for 2 h at 37 °C and 5% CO2 in culture medium without FBS. Mock infection was undertaken in parallel. After the infection period, the medium was removed and replaced with complete medium (including FBS) containing 0.1% DMSO (no treatment control) or the appropriate concentration of each compound and cells were again incubated under standard conditions. At 24 h post-treatment, cells were harvested for determination of effects of compounds on percentage of infection and supernatant was collected for determination of viral productivity. All experiments were undertaken independently in triplicate with duplicate plaque assay.
Mock- or viral-infected cells (with or without compound treatment) were harvested at an appropriate time point then incubated with 10% normal goat serum (NGS; Gibco Invitrogen) in PBS-immunofluorescence assay (IFA) buffer on ice for 30 min. The cells were washed with 800 µL of 1% BSA/PBS-IFA and fixed with 200 µL of 4% paraformaldehyde in PBS-IFA at room temperature in the dark for 20 min. After washing with 800 µL of 1% BSA/PBS-IFA, cells were permeabilized with 200 µL of 0.2% Triton X-100 in PBS-IFA for 10 min at room temperature in the dark. Subsequently, the cells were washed with 800 µL of 1% BSA/PBS-IFA followed by overnight incubation with 50 µL of primary antibody (1:150 dilution of pan-specific anti-dengue virus E protein antibody HB114 for DENV and 1:2 dilution of anti-flavivirus antibody HB112 for ZIKV). After washing twice with 800 µL of 1% BSA/PBS-IFA, the cells were incubated with 50 µL of a goat anti-mouse IgG conjugated with fluorescein isothiocyanate (FITC; KPL, Guilford, UK) diluted 1:40 with 1% BSA/PBS-IFA at room temperature in the dark for 1 h. The cells were washed twice with 800 µL of 1% BSA/PBS-IFA and resuspended in 100 µL of PBS-IFA. The fluorescence signal was analyzed by flow cytometry on a BD FACalibur cytometer (Becton Dickinson, BD Biosciences, San Jose, CA, USA) using CellQuest™ software (Version 6). All experiments were undertaken independently in triplicate. All raw flow cytometry data plots are provided in Supplementary Figures S13–S19.

[1] = MTT cytotoxicity assay in HEK293T/17 cells; format: cell-based; settings: human, HEK293T/17 cells (human embryonic kidney), 24 h post-treatment
Description: (§1) Cytotoxicity of each compound towards cells for four selected cell lines in the range of 1 to 500 µM was evaluated using the MTT (3-(4,5-dimethylthiazol-2-yl)-2,5-diphenyltetrazolium bromide) assay at 24 h post-treatment, in parallel with control and vehicle-treated cells (0.1% dimethyl sulfoxide (DMSO)). The 50% cytotoxic concentration (CC50) values calculated from the dose-response curve (Supplementary Figures S2–S5) are shown in Table 1. Overall, a range of cytotoxicities were seen from the four compounds across the […]. The most cytotoxic combination was ZAD-1 and BHK-21 cells, while the least cytotoxic combination was andrographolide and BHK-21 cells (Table 1).
(§2) A549 cells were cultured in ninety-six-well tissue culture plates under standard conditions until the cells reached 90% confluence. The cell culture medium was removed and then cells were incubated with various concentrations of andrographolide (1–100 μM) diluted in complete medium with FBS prior to being cultured for 24 h under standard conditions before analysis using either the Vybrant MTT Cell proliferation assay kit (V13154, Invitrogen) or the alamarBlue (Thermo Fischer Scientific, Waltham, MA, USA) assay kit according to the manufacturers recommendations. Values were determined from 8 (MTT assay) or 3 (alamarBlue) independent replicates. Negative controls (only media and media with 0.1% DMSO) and positive controls (5% DMSO) were included. To determine cell number, cell cultures were trypsinized by the addition of 0.25% Trypsin/0.1% ethylelediaminetetraacetic acid (EDTA) for 3 min and then cell suspensions were diluted with 0.4% trypan blue solution. Cells were counted using a hemocytometer. Cell morphology was additionally observed under an inverted microscope after 24 h treatment with various concentrations of each compound.
Figu re S5. Cytotoxicity of ZAD -1 (A), ZA D-2 (B), ZA D-3 (C), and andro grapholide (D) to HEK293T/17 (human embryonic kidney) cells.
HEK293T/17 cells were incubated with various concentrations of each compound for 24 hrs followed by MTT cell viability assay. The experiment was undertaken independently in 4 replicates. DMSO at the same concentrations was used as a control.
10% ethanol, PBS, and milli- Q water were used as a positive control of cell death. […]

[2] = MTT cytotoxicity assay in Vero cells; format: cell-based; settings: African green monkey, Vero cells (monkey kidney), 24 h post-treatment
Description: as §1, §2
Figu re S3. Cytotoxicity of ZAD -1 (A), ZA D-2 (B), ZA D-3 (C), and andro grapholide (D) to Ve r o (monkey kidney) cells. Ve r o cells were incubated with various concentrations of each compound for 24 hrs followed by MTT cell viability assay. The experiment was undertaken independently in 4 replicates. DMSO at the same concentrations was used as a control. 10% ethanol, PBS, and milli- Q water were used as a positive control of cell death. The bars show mean ± SD. […]

DENV 2 = test: Percentage of DENV 2 infection of HEK293T/17 cells by flow cytometry; format: cell-based, dengue virus; settings: HEK293T/17, MOI 5, 10 µM, 24 h; exception to the significant reduction
Description: The effects of the compounds on DENV-2 infection were evaluated using HEK293T/17 as host cells at MOI of 5. The cells were infected with DENV 2 for 2 h and then the cells were incubated with the compounds at non-cytotoxic (or morphology altering) concentrations of 10 and 25 μM of ZAD-1 and ZAD-3, or 25 and 50 μM of ZAD-2, or 50 and 75 μM of andrographolide or 0.1% DMSO vehicle control. After 24 h of treatment, cells were harvested for determination of the percentage of infection by flow cytometry, while the culture supernatants were collected to determine the viral production.
HEK293T/17 or A549 cells were cultured in six-well plates under standard conditions until the cells reached 80% confluence. HEK293T/17 cells were infected with DENV 2, while A549 cells were infected with ZIKV Thai strain at MOI 5 for 2 h at 37 °C and 5% CO2 in culture medium without FBS. Mock infection was undertaken in parallel. […]
Mock- or viral-infected cells (with or without compound treatment) were harvested at an appropriate time point then incubated with 10% normal goat serum (NGS; Gibco Invitrogen) in PBS-immunofluorescence assay (IFA) buffer on ice for 30 min. […] The fluorescence signal was analyzed by flow cytometry on a BD FACalibur cytometer (Becton Dickinson, BD Biosciences, San Jose, CA, USA) using CellQuest™ software (Version 6). […]

[3] = MTT cytotoxicity assay in BHK-21 cells; format: cell-based; settings: hamster, BHK-21 cells (baby hamster kidney), 24 h post-treatment
Description: as §1, §2
(§3) Figu re S2. Cytotoxicity of ZAD -1 (A), ZA D-2 (B), ZA D-3 (C), and andro grapholide (D) to BHK- 21 (baby hamster kidney) cells. BHK- 21 cells were incubated with various concentrations of each compound for 24 hrs followed by MTT cell viability assay. The experiment was undertaken independently in 4 replicates.
(§4) DMSO at the same concentrations was used as a control. 10% ethanol, PBS, and milli- Q water were used as a positive control of cell death. The bars show mean ± SD. […]

[4] = MTT cytotoxicity assay in A549 cells; format: cell-based; settings: human, A549 cells (human lung carcinoma), 24 h post-treatment
Description: as §1, §2
as §3, with “S4.” for “S2.”, “A549 (human lung carcinoma)” for “BHK- 21 (baby hamster kidney)”, “A549” for “BHK- 21”
as §4

SMILES	number of ZIKV-infected cells (percentage of infection) (ZIKV)	CC50 at 24 h [1] [µM]	CC50 at 24 h [2] [µM]	percentage of DENV 2 infection (DENV 2)	CC50 at 24 h [3] [µM]	CC50 at 24 h [4] [µM]
C=C1CC[C@@H]2[C@](C)(COC(C)=O)[C@H](O)CC[C@@]2(C)[C@@H]1C/C=C1/C(=O)OC[C@H]1Oc1ccc([N+](=O)[O-])cc1OC [ZAD-3]	no significant effects	201 ± 25	186 ± 25	exception	175 ± 7	190 ± 22
C=C1CC[C@@H]2[C@](C)(CO)[C@H](O)CC[C@@]2(C)[C@@H]1C/C=C1/C(=O)OC[C@@H]1Oc1ccc([N+](=O)[O-])cc1OC [ZAD-2]	no significant effects	197 ± 7	179 ± 13	–	218 ± 16	194 ± 17
